Experiments:
[1] = system: inflammatory pain induced by intraplantar injection of Complete Freund's Adjuvant; assay: FCA (Freund's Complete Adjuvant) test, model of inflammatory pain; type: in vivo; settings: rat, tested 72 h post FCA injection
Method: Compounds of formula (I) may show analgesic activity in the FCA (Freund's Complete Adjuvant) test in the rat, a model of inflammatory pain which is induced by intraplantar injection of Complete Freund's Adjuvant (Stein et al. Pharmac. Biochem. Behav., 1988, 31, 445-451). […] Thus, the local anesthetic effect may not mask the analgesic properties of the compounds (Scott et al., British Journal of Anaesthesia, 1988, 61, 165-8). […] All compounds were tested 72 h post FCA injection.

Nav1.5 [2] = molecular target: T1, Nav1.5 (Homo sapiens, UniProt Q14524); assay: Inhibition of Nav1.5 as measured using QPatch; type: cell-based
T1 construct: expressed in transfected cells
From the text: (§1) Patch-clamp electrophysiology is considered the gold standard technique for investigation of ion channel function and pharmacology. Using this method, sodium channel currents can be measured in cells, which stably (or transiently) express the sodium channel subtype of interest. Application of compounds during such experiments provides a functional measure of the activity and potency of compounds affecting the ion channel of interest.
Electrophysiological studies can be performed using automated or manual patch-clamp techniques. Automated patch-clamp instruments suitable for this work include the Ion Works HT (MDS), Ion Works Quattro (MDS), PatchLiner (Nanion technologies), Port-A-Patch (Nanion technologies), QPatch (Sophion) or any other suitable platform.
For recording in automated patch-clamp instruments, cells expressing the voltage-gated sodium channel subtype of interest are dispensed in appropriate chips (plates with more than one recording chambers each containing one or more apertures to generate whole-cell patches), as provided by the manufacturer. Typically, the whole-cell perforated patch configuration is used for probing the pharmacology of compounds in automated patch-clamp electrophysiology on sodium channels. Extracellular and intracellular buffers for such experiments are composed according to the literature, or according to the instructions provided by the manufacturer of the instruments. Test solutions, which contain the compounds to be tested, are applied to the cells expressing the sodium channel of interest by a pipetting system, typically integrated into the robots.
(§2) A suitable voltage stimulus protocol is used to activate voltage-gated sodium channel proteins of interest. A typical stimulus protocol may consist of sweeps of sequential voltage pulses starting from a holding potential (i.e. −65 mV), to a more positive and depolarising test pulse potential (i.e. −10 mV) and finally to a more negative and hyperpolarising potential (i.e. −100 mV). According to the biophysics of the voltage-gated ion channel of interest and interest in channel configuration the voltages and durations of the pulses as well as the overall frequency of sweeps applied might vary. Accordingly, a stimulus protocol was designed to assess compounds due to their potential to block NaV1.7 channels primarily in inactivated state. Selectivity over other voltage-gated sodium channel members was assessed by protocols that reflect the native function of the channels (i.e. heart rate or firing of neurons).
Inhibition of Nav1.5 by Compounds of formula (I) as measured using QPatch

Nav 1.7 [3] = molecular target: T2, Nav 1.7 (Homo sapiens, UniProt Q15858); assay: Whole-cell voltage clamp electrophysiology, manual patch clamp (marker b in Table of Examples); type: cell-based; settings: marker b: Manual patch clamp data; read-out: Nav 1.7 activity
T2 construct: expressed in transfected cells
Outline: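 Manual whole-cell patch clamp on cells expressing human NaV1.7, compounds applied by microperfusion. Protocol biased to inactivated-state block: holding −60 mV, hyperpolarizing step −120 mV for 100 ms, then depolarization to −20 mV for 25 ms, pulses at 0.1 Hz.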

Nav 1.7 [4] = molecular target: T2, Nav 1.7; assay: Nav 1.7 activity in Table of Examples, no platform marker printed; type: cell-based; settings: no marker a/b/c printed in the cell
From the text: a.IonWork Quattro data, b=Manual patch clamp data, c=Automated patch clamp data M=Method

Nav1.5 [5] = molecular target: T1, Nav1.5; assay: Inhibition of Nav1.5 as measured using manual patch clamp; type: cell-based
From the text: as §1
Electrophysiological studies can also be performed using the whole cell configuration of the standard manual patch clamp technique as described in the literature (e.g. Pflugers Arch., 1981, 391(2), 85-100). In this assay, cells that express the voltage-gated sodium channel protein of interest are exposed to the drugs by conventional microperfusion systems, or by a home-built perfusion system. A suitable voltage stimulus protocol is used to activate the voltage-gated sodium channels.
as §2
Electrophysiological studies can also be performed using the whole cell configuration of the standard manual patch clamp technique as described in the literature (e.g. Pflugers Arch., 1981, 391(2), 85-100). In this assay, cells that express the human voltage-gated sodium channel protein of interest are exposed to the drugs by conventional microperfusion systems, or by a home-built perfusion system. A suitable voltage stimulus protocol is used to activate the voltage-gated sodium channels. A suitable voltage stimulus protocol may consist of sequential voltage pulses from a holding potential, each first hyperpolarizing the cell, then depolarizing the channels for a brief period. A particularly suitable holding potential may be a voltage allowing a fraction of channels to remain in an inactivated state, like −60 mV. A suitable hyperpolarizing voltage and duration may be −120 mV for 100 ms, and depolarization voltage and duration may be −20 mV for 25 ms, and a suitable frequency of pulses may be 0.1 Hz, but may also have other parameters. Accordingly, a stimulus protocol was designed to assess compounds due to their potential to block NaV1.7 channels primarily in inactivated state. Selectivity over other voltage-gated sodium channel members was assessed by protocols that reflect the native function of the channels (i.e. heart rate or firing of neurons).
Inhibition of Nav1.5 by Compounds of formula (I) as measured using manual patch clamp

T2 sequence (Q15858 whole entry): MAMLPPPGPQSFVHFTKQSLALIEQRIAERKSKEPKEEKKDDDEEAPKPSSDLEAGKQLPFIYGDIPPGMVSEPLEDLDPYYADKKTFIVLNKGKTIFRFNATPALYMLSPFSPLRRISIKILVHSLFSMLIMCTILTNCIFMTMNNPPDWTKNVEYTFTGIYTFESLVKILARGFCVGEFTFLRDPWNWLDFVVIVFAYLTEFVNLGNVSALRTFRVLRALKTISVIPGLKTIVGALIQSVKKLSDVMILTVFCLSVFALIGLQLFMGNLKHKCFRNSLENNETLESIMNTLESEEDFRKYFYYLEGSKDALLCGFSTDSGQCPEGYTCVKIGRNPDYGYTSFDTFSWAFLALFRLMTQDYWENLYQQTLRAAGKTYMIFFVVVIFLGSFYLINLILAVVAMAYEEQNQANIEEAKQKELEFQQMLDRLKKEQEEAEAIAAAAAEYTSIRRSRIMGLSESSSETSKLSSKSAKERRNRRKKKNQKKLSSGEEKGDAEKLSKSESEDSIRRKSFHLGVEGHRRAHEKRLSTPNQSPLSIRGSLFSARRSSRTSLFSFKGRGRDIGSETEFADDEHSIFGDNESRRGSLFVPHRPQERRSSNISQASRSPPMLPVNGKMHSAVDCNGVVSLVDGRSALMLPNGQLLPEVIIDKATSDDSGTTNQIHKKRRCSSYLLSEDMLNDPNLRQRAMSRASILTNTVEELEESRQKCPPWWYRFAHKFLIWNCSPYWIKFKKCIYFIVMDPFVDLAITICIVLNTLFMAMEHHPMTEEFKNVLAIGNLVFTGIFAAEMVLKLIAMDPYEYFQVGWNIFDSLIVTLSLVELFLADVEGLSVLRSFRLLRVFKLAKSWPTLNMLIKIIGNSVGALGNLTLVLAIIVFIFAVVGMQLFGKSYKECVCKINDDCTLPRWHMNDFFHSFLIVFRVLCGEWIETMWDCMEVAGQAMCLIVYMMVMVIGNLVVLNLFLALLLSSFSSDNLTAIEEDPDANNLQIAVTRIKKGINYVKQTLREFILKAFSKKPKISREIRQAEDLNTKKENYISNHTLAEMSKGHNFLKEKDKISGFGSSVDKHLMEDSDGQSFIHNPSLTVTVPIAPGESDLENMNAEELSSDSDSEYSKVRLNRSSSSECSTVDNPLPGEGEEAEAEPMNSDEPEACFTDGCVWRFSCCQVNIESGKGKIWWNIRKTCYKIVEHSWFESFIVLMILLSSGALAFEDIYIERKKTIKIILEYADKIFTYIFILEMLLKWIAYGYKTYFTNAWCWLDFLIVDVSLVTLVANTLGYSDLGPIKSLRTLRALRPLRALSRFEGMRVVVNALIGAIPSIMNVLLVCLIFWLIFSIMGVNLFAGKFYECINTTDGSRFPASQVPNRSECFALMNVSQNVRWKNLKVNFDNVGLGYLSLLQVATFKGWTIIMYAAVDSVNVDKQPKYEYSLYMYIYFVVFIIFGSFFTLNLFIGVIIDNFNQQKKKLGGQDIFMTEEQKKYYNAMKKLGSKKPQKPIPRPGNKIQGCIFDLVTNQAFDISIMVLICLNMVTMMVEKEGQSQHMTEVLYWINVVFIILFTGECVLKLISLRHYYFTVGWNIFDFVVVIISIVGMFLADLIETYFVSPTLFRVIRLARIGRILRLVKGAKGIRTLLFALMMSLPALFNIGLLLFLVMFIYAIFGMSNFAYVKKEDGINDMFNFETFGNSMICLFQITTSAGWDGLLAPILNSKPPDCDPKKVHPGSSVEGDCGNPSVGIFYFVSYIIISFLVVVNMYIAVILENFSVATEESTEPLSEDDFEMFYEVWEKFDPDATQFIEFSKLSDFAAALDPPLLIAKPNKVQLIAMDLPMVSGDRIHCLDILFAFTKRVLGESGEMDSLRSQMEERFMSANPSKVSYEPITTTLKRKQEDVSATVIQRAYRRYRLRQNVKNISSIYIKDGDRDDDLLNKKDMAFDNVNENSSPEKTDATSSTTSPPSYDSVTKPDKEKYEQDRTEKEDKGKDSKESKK
T1 sequence (Q14524 whole entry): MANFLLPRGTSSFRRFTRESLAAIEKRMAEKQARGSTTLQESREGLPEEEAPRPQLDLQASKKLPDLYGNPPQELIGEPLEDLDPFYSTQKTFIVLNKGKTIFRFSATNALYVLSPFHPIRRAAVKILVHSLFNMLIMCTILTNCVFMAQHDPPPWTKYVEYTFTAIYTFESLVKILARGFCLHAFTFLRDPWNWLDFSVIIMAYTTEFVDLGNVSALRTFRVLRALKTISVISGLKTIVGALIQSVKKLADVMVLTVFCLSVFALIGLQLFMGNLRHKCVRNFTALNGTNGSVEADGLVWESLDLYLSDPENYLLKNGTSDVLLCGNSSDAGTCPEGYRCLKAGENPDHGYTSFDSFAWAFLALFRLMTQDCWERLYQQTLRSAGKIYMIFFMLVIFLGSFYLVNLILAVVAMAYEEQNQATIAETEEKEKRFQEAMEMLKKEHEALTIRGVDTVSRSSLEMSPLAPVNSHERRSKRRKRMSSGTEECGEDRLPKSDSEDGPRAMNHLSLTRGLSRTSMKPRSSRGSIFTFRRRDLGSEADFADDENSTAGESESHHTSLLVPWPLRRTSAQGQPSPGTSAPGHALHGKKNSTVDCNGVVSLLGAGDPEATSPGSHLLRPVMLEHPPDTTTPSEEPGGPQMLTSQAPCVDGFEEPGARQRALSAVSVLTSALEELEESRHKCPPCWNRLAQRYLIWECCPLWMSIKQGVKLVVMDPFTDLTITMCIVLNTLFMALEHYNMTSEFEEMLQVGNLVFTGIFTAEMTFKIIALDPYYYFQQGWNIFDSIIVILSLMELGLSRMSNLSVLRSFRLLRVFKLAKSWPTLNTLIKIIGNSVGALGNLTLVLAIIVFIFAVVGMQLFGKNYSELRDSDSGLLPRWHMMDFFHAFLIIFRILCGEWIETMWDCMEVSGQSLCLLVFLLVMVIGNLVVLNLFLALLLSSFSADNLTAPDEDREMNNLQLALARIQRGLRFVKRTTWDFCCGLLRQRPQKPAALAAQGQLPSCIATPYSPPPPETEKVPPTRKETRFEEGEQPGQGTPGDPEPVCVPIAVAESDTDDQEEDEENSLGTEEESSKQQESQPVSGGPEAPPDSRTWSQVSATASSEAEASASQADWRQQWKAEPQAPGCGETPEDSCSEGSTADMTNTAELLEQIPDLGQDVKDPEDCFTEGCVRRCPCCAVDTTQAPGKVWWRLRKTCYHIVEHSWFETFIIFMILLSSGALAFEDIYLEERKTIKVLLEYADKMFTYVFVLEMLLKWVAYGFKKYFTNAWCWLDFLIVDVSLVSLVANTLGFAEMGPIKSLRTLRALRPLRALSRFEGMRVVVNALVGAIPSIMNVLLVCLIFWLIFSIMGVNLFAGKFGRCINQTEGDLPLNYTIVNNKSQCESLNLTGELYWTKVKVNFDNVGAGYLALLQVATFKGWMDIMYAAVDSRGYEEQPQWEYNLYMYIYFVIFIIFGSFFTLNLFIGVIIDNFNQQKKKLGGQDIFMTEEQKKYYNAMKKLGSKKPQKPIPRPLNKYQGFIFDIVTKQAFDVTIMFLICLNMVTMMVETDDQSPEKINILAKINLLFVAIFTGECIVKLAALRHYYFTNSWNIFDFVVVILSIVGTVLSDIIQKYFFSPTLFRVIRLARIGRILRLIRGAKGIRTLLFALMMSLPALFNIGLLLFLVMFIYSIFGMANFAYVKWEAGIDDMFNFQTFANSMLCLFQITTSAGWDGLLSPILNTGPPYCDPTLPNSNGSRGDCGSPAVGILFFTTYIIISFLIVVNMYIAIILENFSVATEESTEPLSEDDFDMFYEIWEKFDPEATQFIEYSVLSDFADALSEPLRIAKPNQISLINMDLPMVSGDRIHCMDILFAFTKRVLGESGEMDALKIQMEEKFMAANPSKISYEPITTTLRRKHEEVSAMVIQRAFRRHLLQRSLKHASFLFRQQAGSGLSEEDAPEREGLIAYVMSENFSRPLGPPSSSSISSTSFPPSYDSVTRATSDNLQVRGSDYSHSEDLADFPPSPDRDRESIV

IC50 (Nav 1.7 [3]) | IC50 (Nav 1.7 [4]) | Structure (SMILES) | analgesic efficacy in FCA test ([1]; 3 mg/kg p.o.) | IC50 (Nav1.5 [2]) | analgesic efficacy in FCA test ([1]; 1 mg/kg p.o.) | IC50 (Nav1.5 [5])
110 nM |  | CN(c1ccccc1)c1nc(N)nc(-c2noc(-c3ccc(OCC(F)(F)F)nc3)n2)n1 [Example 67, N-Methyl-N-phenyl-6-{5-[6-(2,2,2-trifluoroethoxy)-pyridin-3-yl]-[1,2,4]oxadiazol-3-yl}-[1,3,5]triazine-2,4-diamine] | efficacious | 7060 nM |  | 
 | 73 nM | CN(c1ccccc1)c1nc(N)nc(-c2noc(-c3ccc(COCC(F)(F)F)nc3)n2)n1 [Example 291, 2-N-Methyl-2-N-phenyl-6-(5-{6-[(2,2,2-trifluoroethoxy)methyl]pyridin-3-yl}-1,2,4-oxadiazol-3-yl)-1,3,5-triazine-2,4-diamine] |  |  |  | 
560 nM |  | CN(c1ccccc1)c1nc(N)nc(-c2noc(-c3nccs3)n2)n1 [Example 125, N-Methyl-N-pheny!-6-(5-thiazol-2-yl-[1,2,4]oxadiazol-3-yl)-[1,3,5]triazine-2,4-diamine] |  |  | efficacious | 917 nM
44 nM |  | Nc1nc(Nc2ccccc2)nc(-c2noc(-c3nccs3)n2)n1 [Example 130, N-Phenyl-6-(5-thiazol-2-yl-[1,2,4]oxadiazol-3-yl)-[1,3,5]triazine2,4-diamine] |  | 1670 nM | efficacious | 

Source: patent US8895733B2 (Novartis AG, priority 2010, dated 2014)
